Test results reported in US11135252B2, “Probiotic therapies for developmental disorders and other neurological disorders” (Baylor College of Medicine, priority 2016, dated 2021).

Experiments:
[1] = system: oxytocin immunoreactivity in the PVN; test: Oxytocin immunofluorescence in the PVN of MHFD offspring; type: in vivo, mice; details: for oxytocin-positive cell number in the PVN: relative to heat-killed L. reuteri / control treatment
Procedure: Lactobacillus reuteri MM4-1A (ATCC-PTA-6475) and Lactobacillus johnsonii (ATCC 33200) were cultured anaerobically in MRS broth in a 90% N2, 5% CO2, 5% H2 environment. L. reuteri was heat-killed by keeping the bacteria at 80° C. for 20 minutes (Wang et al., 2010). Bacterial viability was assessed by plating and the efficacy of the heat-kill procedure was confirmed by the absence of colony growth following plating. Cultures were centrifuged, washed, and resuspended in anaerobic solution (PBS) and frozen at −80° C. until use. PBS, live or heat-killed L. reuteri were added to the drinking water, which was changed daily to minimize dosage variability. Whereas the experimental group received live bacteria, one control group received identically prepared cultures of heat-killed bacteria. A second group of control mice received water treated with PBS alone. Live and heat-killed L. reuteri were supplied at a dosage of 1×10^8 organisms/mouse/day continuously in drinking water. Mice consumed the treated water ad libitum over the treatment period. The treated drinking water for each group was replaced daily two hours prior to the onset of the dark cycle to minimize variation in microbial exposure. Behavioral assays were initiated after 4-weeks of L. reuteri or control treatment. The protocol of the L. johnsonii preparation and administration matched the L. reuteri protocol. Fecal samples for sequencing and tissue used in the immunofluorescence studies were collected at the end of the treatment.
Mice were deeply anesthetized by inhalation of isoflurane and perfused transcardially with 10 ml 0.9% phosphate-buffered saline followed by 30 ml 4% paraformaldehyde in 0.1M phosphate buffer (PFA). […] Fluorescence intensity was measured in ImageJ (NIH) by selecting regions of interest (Oxytocin- and NeuN-positive hypothalamic cell bodies). Hypothalamic oxytocin-expressing neuronal population and NeuN+ cell number was assessed in ImageJ using the following operational sequence: (1) open image file, (2) subtract background, (3) adjust threshold, (4) convert to mask, (5) watershed, (6) analyze particles. […]

[2] = system: MHFD offspring; test: Reciprocal social interaction test in MHFD offspring; type: in vivo, mice
Description: Animal care and experimental procedures were approved by Baylor College of Medicine's Institutional Animal Care and Use Committee in accordance with all guidelines set forth by the U.S. National Institutes of Health. Reciprocal Social Interaction. Mice were placed in a 25×25×25 cm Plexiglass arena, to which they had not been previously habituated, with either a familiar (cage-mate) or stranger age- and sex-matched conspecific. In all experiments, paired mice were matched for maternal diet, colonization source, and/or treatment. We recorded the time a pair of mice engaged in social interaction (close following, touching, nose-to-nose sniffing, nose-to-anus sniffing, and/or crawling over/under each other). The human observer was blind to maternal diet and/or treatment group. Social behavior was analyzed with AnyMaze automated software. Lactobacillus reuteri MM4-1A (ATCC-PTA-6475) and Lactobacillus johnsonii (ATCC 33200) were cultured anaerobically in MRS broth in a 90% N2, 5% CO2, 5% H2 environment. L. reuteri was heat-killed by keeping the bacteria at 80° C. for 20 minutes (Wang et al., 2010). Bacterial viability was assessed by plating and the efficacy of the heat-kill procedure was confirmed by the absence of colony growth following plating. Cultures were centrifuged, washed, and resuspended in anaerobic solution (PBS) and frozen at −80° C. until use. PBS, live or heat-killed L. reuteri were added to the drinking water, which was changed daily to minimize dosage variability. Whereas the experimental group received live bacteria, one control group received identically prepared cultures of heat-killed bacteria. A second group of control mice received water treated with PBS alone. Live and heat-killed L. reuteri were supplied at a dosage of 1×10^8 organisms/mouse/day continuously in drinking water. Mice consumed the treated water ad libitum over the treatment period. The treated drinking water for each group was replaced daily two hours prior to the onset of the dark cycle to minimize variation in microbial exposure. Behavioral assays were initiated after 4-weeks of L. reuteri or control treatment. The protocol of the L. johnsonii preparation and administration matched the L. reuteri protocol. Fecal samples for sequencing and tissue used in the immunofluorescence studies were collected at the end of the treatment. Oxytocin was obtained from Tocris Bioscience (product 1910) and solubilized in 10% dimethyl sulfoxide (DMSO) in PBS. 10% DMSO in PBS was used as the vehicle control. Mice received oxytocin intranasally (at approximately 200 μg/kg) thirty minutes prior to behavior. 1.25 μl of oxytocin or vehicle solution was injected into each nostril from P10 pipette. Oxytocin dose was selected according to dosages reported to rescue social behavior in genetic models phenotypically expressing ASD-like behaviors (Penagarikano et al., 2015).

## Lactobacillus reuteri MM4-1A (ATCC-PTA-6475) [L. reuteri]
[1]; relative to heat-killed L. reuteri
  oxytocin immunofluorescence intensity in the PVN: significantly increased
[1]
  oxytocin-positive cell number in the PVN: higher than in control-treated MHFD offspring
[1]; listed as live L. reuteri
  oxytocin-positive cell number in the PVN: significantly increased
[2]; bacteria in drinking water
  reciprocal social interaction: rescued
[2]; bacteria in drinking water, listed as live L. reuteri
  reciprocal social interaction: restored reciprocal social interaction

## CC[C@H](C)[C@@H]1NC(=O)[C@H](Cc2ccc(O)cc2)NC(=O)[C@@H](N)CSSC[C@@H](C(=O)N2CCC[C@H]2C(=O)N[C@@H](CC(C)C)C(=O)NCC(N)=O)NC(=O)[C@H](CC(N)=O)NC(=O)[C@H](CCC(N)=O)NC1=O [oxytocin]
[2]; intranasal oxytocin
  contact duration in reciprocal social interaction test: improved MHFD offspring contact duration
  interaction frequency in reciprocal social interaction test: improved
[2]; intranasal oxytocin approximately 200 μg/kg, 30 min prior
  reciprocal social interaction: improved reciprocal social interaction
[2]; intranasal oxytocin approximately 200 μg/kg, 30 min prior, listed as Oxytocin
  reciprocal social interaction: restored reciprocal social interaction
